Measurements: patent US12679832B2, “Compounds and their uses as CD38 inhibitors” (Nanjing Immunophage Biotech Co., Ltd., priority 2021, dated 2026)

Molecular target: T1, hCD38 Enzyme (Homo sapiens, UniProt P28907)
T1 construct: purchased Sino Biological Inc 10818-H08H
T1 sequence (P28907 43-300 limits assumed): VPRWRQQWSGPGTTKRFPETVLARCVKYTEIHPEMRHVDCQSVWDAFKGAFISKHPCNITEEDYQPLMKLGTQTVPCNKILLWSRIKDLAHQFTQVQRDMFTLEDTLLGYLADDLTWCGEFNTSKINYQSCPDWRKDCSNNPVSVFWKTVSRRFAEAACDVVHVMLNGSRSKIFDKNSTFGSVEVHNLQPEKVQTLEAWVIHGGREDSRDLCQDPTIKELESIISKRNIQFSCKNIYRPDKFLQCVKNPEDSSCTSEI
Assay: CD38 hydrolase enzymatic assay
Type: biochemical
Details: rhCD38, ε-NAD substrate, 25° C., point reading time 20 mins; read-out: hCD38 Enzyme inhibition IC50

Going from `N#Cc1ccc(NC(=O)c2cc(C(F)(F)F)nc(-n3ccnc3)n2)cc1` [compound 165, N-(4-cyanophenyl)-2-(1H-imidazol-1-yl)-6-(trifluoromethyl) pyrimidine-4-carboxamide] to `O=C(Nc1ccc(F)cc1)c1cc(C(F)(F)F)nc(-n2ccnc2)n1` [compound 172, N-(4-fluorophenyl)-2-(1H-imidazol-1-yl)-6-(trifluoromethyl) pyrimidine-4-carboxamide], the IC50 rises from 3 nM to 8.2 nM (2.7-fold).

First: O=C(Nc1cncc(F)c1)c1cc(C(F)(F)F)nc(-n2ccnc2)n1 [compound 167, N-(5-fluoropyridin-3-yl)-2-(1H-imidazol-1-yl)-6-(trifluoromethyl) pyrimidine-4-carboxamide]
Second: N#Cc1cncc(NC(=O)c2cc(C(F)(F)F)nc(-n3ccnc3)n2)c1 [compound 169, N-(5-cyanopyridin-3-yl)-2-(1H-imidazol-1-yl)-6-(trifluoromethyl) pyrimidine-4-carboxamide]
The IC50 of the first is 5-fold lower: 4 nM for the first, 20 nM for the second. The first is the more potent here.

`O=C(Nc1ccc(F)c(F)c1)c1cc(C(F)(F)F)nc(-n2ccnc2)n1` [compound 173, N-(3,4-difluorophenyl)-2-(1H-imidazol-1-yl)-6-(trifluoromethyl) pyrimidine-4-carboxamide] and `O=C(Nc1cc(F)cc(F)c1)c1cc(C(F)(F)F)nc(-n2ccnc2)n1` [compound 174, N-(3,5-difluorophenyl)-2-(1H-imidazol-1-yl)-6-(trifluoromethyl) pyrimidine-4-carboxamide] are within 1.5-fold of each other in IC50: 6.8 nM for the first, 5.4 nM for the second.

First: O=C(Nc1cc(F)cc(N2CCNCC2)c1)c1cc(C(F)(F)F)nc(-n2ccnc2)n1 [compound 175, N-(3-fluoro-5-(piperazin-1-yl)phenyl)-2-(1H-imidazol-1-yl)-6-(trifluoromethyl) pyrimidine-4-carboxamide]
Second: O=C(Nc1cc(F)cc(N2CCOCC2)c1)c1cc(C(F)(F)F)nc(-n2ccnc2)n1 [compound 176, N-(3-fluoro-5-morpholinophenyl)-2-(1H-imidazol-1-yl)-6-(trifluoromethyl) pyrimidine-4-carboxamide]
The IC50 of the first is 3.4-fold higher: 68 nM for the first, 20 nM for the second. The second is the more potent here.

First: O=C(Nc1cccc(N2CCOCC2)c1)c1cc(C(F)(F)F)nc(-n2ccnc2)n1 [compound 177, 2-(1H-imidazol-1-yl)-N-(3-morpholinophenyl)-6-(trifluoromethyl) pyrimidine-4-carboxamide]
Second: O=C(Nc1cc(F)cc(N2CC[C@H](O)C2)c1)c1cc(C(F)(F)F)nc(-n2ccnc2)n1 [compound 178, (S)-N-(3-fluoro-5-(3-hydroxypyrrolidin-1-yl)phenyl)-2-(1H-imidazol-1-yl)-6-(trifluoromethyl) pyrimidine-4-carboxamide]
The IC50 of the first is 2.2-fold higher: 38 nM for the first, 17.3 nM for the second. The second is the more potent here.

Compared with `COC(C)(C)c1cc(F)cc(NC(=O)c2cc(C(F)(F)F)nc(-n3ccnc3)n2)c1` [compound 179, N-(3-fluoro-5-(2-methoxypropan-2-yl)phenyl)-2-(1H-imidazol-1-yl)-6-(trifluoromethyl) pyrimidine-4-carboxamide], `CN(C)CCOc1cc(F)cc(NC(=O)c2cc(C(F)(F)F)nc(-n3ccnc3)n2)c1` [compound 181, N-(3-(2-(dimethylamino)ethoxy)-5-fluorophenyl)-2-(1H-imidazol-1-yl)-6-(trifluoromethyl) pyrimidine-4-carboxamide] is 23-fold lower in IC50: 586 nM for the first, 25.4 nM for the second. The second is the more potent here.

Going from `CO[C@H]1CC[C@H](NC(=O)c2cc(-c3ccncc3)nc(-n3ccnc3)n2)CC1` [compound 183, 2-(1H-imidazol-1-yl)-N-((1r,4r)-4-methoxycyclohexyl)-6-(pyridin-4-yl) pyrimidine-4-carboxamide] to `N#Cc1cc(C(=O)Nc2cccnc2)nc(-n2ccnc2)n1` [compound 186, 6-cyano-2-(1H-imidazol-1-yl)-N-(pyridin-3-yl)pyrimidine-4-carboxamide], the IC50 falls from 28 nM to 2 nM (14-fold).

`N#Cc1cc(C(=O)Nc2cccc(F)c2)nc(-n2ccnc2)n1` [compound 185, 6-cyano-N-(3-fluorophenyl)-2-(1H-imidazol-1-yl) pyrimidine-4-carboxamide] and `N#Cc1cc(C(=O)Nc2ccc(F)cc2)nc(-n2ccnc2)n1` [compound 187, 6-cyano-N-(4-fluorophenyl)-2-(1H-imidazol-1-yl)pyrimidine-4-carboxamide] are the same in IC50: 2 nM for the first, 2 nM for the second.

First: N#Cc1cc(C(=O)Nc2cncnc2)nc(-n2ccnc2)n1 [compound 189, 6-cyano-2-(1H-imidazol-1-yl)-N-(pyrimidin-5-yl)pyrimidine-4-carboxamide]
Second: O=C(Nc1cncnc1)c1cc(C(F)(F)F)cc(-n2ccnc2)n1 [compound 192, 6-(1H-imidazol-1-yl)-N-(pyrimidin-5-yl)-4-(trifluoromethyl) picolinamide]
The IC50 of the first is 2-fold higher: 12 nM for the first, 6.1 nM for the second. The second is the more potent here.

`O=C(Nc1ccncc1)c1cc(C(F)(F)F)cc(-n2ccnc2)n1` [compound 190, 6-(1H-imidazol-1-yl)-N-(pyridin-4-yl)-4-(trifluoromethyl) picolinamide] and `O=C(Nc1cccnc1)c1cc(C(F)(F)F)cc(-n2ccnc2)n1` [compound 191, 6-(1H-imidazol-1-yl)-N-(pyridin-3-yl)-4-(trifluoromethyl) picolinamide] are within 1.5-fold of each other in IC50: 2.8 nM for the first, 3.8 nM for the second.

First: O=C(Nc1cnc(OCCO)nc1)c1cc(C(F)(F)F)nc(-n2ccnc2)n1 [compound 193, N-(2-(2-hydroxyethoxy)pyrimidin-5-yl)-2-(1H-imidazol-1-yl)-6-(trifluoromethyl) pyrimidine-4-carboxamide]
Second: O=C(O)COc1ncc(NC(=O)c2cc(C(F)(F)F)nc(-n3ccnc3)n2)cn1 [compound 194, 2-((5-(2-(1H-imidazol-1-yl)-6-(trifluoromethyl)pyrimidine-4-carboxamido)pyrimidin-2-yl)oxy) acetic acid]
The IC50 of the first is 2.7-fold lower: 11 nM for the first, 30 nM for the second.
